According to ChEMBL document CHEMBL5723584 (2023):

Key:
Conditions in all cases: Compound concentration 1.0 uM
[1] = biological target: Tyrosine-protein kinase ABL1 (Homo sapiens) (UniProt P00519); experiment: activity of Abl(h) at 1.0 µM in the Eurofins Kinase panel
[2] = biological target: NUAK family SNF1-like kinase 1 (Homo sapiens) (UniProt O60285); experiment: activity of ARK5(h) at 1.0 µM in the Eurofins Kinase panel
[3] = biological target: CDK18/Cyclin Y (Homo sapiens) (UniProt Q07002+Q8ND76); experiment: activity of CDK18/cyclinY(h) at 1.0 µM in the Eurofins Kinase panel; type: protein-complex assay
[4] = biological target: Cyclin-dependent kinase 2/cyclin A (Homo sapiens) (UniProt P24941+P20248+P78396); experiment: activity of CDK2/cyclinA(h) at 1.0 µM in the Eurofins Kinase panel; type: protein-complex assay
[5] = biological target: CDK9/cyclin T1 (Homo sapiens) (UniProt O60563+P50750); experiment: activity of CDK9/cyclin T1(h) at 1.0 µM in the Eurofins Kinase panel; type: protein-complex assay
[6] = biological target: Cyclin-dependent kinase-like 2 (Homo sapiens) (UniProt Q92772); experiment: activity of CDKL2(h) at 1.0 µM in the Eurofins Kinase panel
[7] = biological target: Mast/stem cell growth factor receptor Kit (Homo sapiens) (UniProt P10721); experiment: activity of cKit(h) at 1.0 µM in the Eurofins Kinase panel
[8] = biological target: RAF proto-oncogene serine/threonine-protein kinase (Homo sapiens) (UniProt P04049); experiment: activity of c-RAF(h) at 1.0 µM in the Eurofins Kinase panel
[9] = biological target: Ephrin type-A receptor 3 (Homo sapiens) (UniProt P29320); experiment: activity of EphA3(h) at 1.0 µM in the Eurofins Kinase panel
[10] = biological target: Ephrin type-A receptor 4 (Homo sapiens) (UniProt P54764); experiment: activity of EphA4(h) at 1.0 µM in the Eurofins Kinase panel
[11] = biological target: Ephrin type-B receptor 2 (Homo sapiens) (UniProt P29323); experiment: activity of EphB2(h) at 1.0 µM in the Eurofins Kinase panel
[12] = biological target: Fibroblast growth factor receptor 1 (Homo sapiens) (UniProt P11362); experiment: activity of FGFR1(h) at 1.0 µM in the Eurofins Kinase panel
[13] = biological target: Homeodomain-interacting protein kinase 1 (Homo sapiens) (UniProt Q86Z02); experiment: activity of HIPK1(h) at 1.0 µM in the Eurofins Kinase panel
[14] = biological target: MAP/microtubule affinity-regulating kinase 4 (Homo sapiens) (UniProt Q96L34); experiment: activity of MARK4(h) at 1.0 µM in the Eurofins Kinase panel
[15] = biological target: Dual specificity mitogen-activated protein kinase kinase 2 (Homo sapiens) (UniProt P36507); experiment: activity of MEK2(h) at 1.0 µM in the Eurofins Kinase panel
[16] = biological target: Mitogen-activated protein kinase kinase kinase 21 (Homo sapiens) (UniProt Q5TCX8); experiment: activity of MLK4(h) at 1.0 µM in the Eurofins Kinase panel
[17] = biological target: Ribosomal protein S6 kinase alpha-5 (Homo sapiens) (UniProt O75582); experiment: activity of MSK1(h) at 1.0 µM in the Eurofins Kinase panel
[18] = biological target: Serine/threonine-protein kinase 3 (Homo sapiens) (UniProt Q13188); experiment: activity of MST2(h) at 1.0 µM in the Eurofins Kinase panel
[19] = biological target: Serine/threonine-protein kinase mTOR (Homo sapiens) (UniProt P42345); experiment: activity of mTOR(h) at 1.0 µM in the Eurofins Kinase panel
[20] = biological target: Serine/threonine-protein kinase 38-like (Homo sapiens) (UniProt Q9Y2H1); experiment: activity of NDR2(h) at 1.0 µM in the Eurofins Kinase panel
[21] = biological target: Serine/threonine-protein kinase NLK (Homo sapiens) (UniProt Q9UBE8); experiment: activity of NLK(h) at 1.0 µM in the Eurofins Kinase panel
[22] = biological target: Serine/threonine-protein kinase MARK2 (Homo sapiens) (UniProt Q7KZI7); experiment: activity of PAR-1Balpha(h) at 1.0 µM in the Eurofins Kinase panel
[23] = biological target: [Pyruvate dehydrogenase (acetyl-transferring)] kinase isozyme 4, mitochondrial (Homo sapiens) (UniProt Q16654); experiment: activity of PDHK4(h) at 1.0 µM in the Eurofins Kinase panel
[24] = biological target: Eukaryotic translation initiation factor 2-alpha kinase 3 (Homo sapiens) (UniProt Q9NZJ5); experiment: activity of PEK(h) at 1.0 µM in the Eurofins Kinase panel
[25] = biological target: PI3-kinase p110-delta/p85-alpha (Homo sapiens) (UniProt P27986+O00329); experiment: activity of PI3 Kinase (p110delta/p85alpha)(h) at 1.0 µM in the Eurofins Kinase panel; type: protein-complex assay
[26] = biological target: Serine/threonine-protein kinase pim-1 (Homo sapiens) (UniProt P11309); experiment: activity of Pim-1(h) at 1.0 µM in the Eurofins Kinase panel
[27] = biological target: Protein kinase C alpha type (Homo sapiens) (UniProt P17252); experiment: activity of PKCalpha(h) at 1.0 µM in the Eurofins Kinase panel
[28] = biological target: Protein kinase C delta type (Homo sapiens) (UniProt Q05655); experiment: activity of PKCdelta(h) at 1.0 µM in the Eurofins Kinase panel
[29] = biological target: Protein kinase C iota type (Homo sapiens) (UniProt P41743); experiment: activity of PKCiota(h) at 1.0 µM in the Eurofins Kinase panel
[30] = biological target: Serine/threonine-protein kinase PLK1 (Homo sapiens) (UniProt P53350); experiment: activity of Plk1(h) at 1.0 µM in the Eurofins Kinase panel
[31] = biological target: Serine/threonine-protein kinase PLK3 (Homo sapiens) (UniProt Q9H4B4); experiment: activity of Plk3(h) at 1.0 µM in the Eurofins Kinase panel
[32] = biological target: Serine/threonine-protein kinase PLK4 (Homo sapiens) (UniProt O00444); experiment: activity of Plk4(h) at 1.0 µM in the Eurofins Kinase panel
[33] = biological target: Serine/threonine-protein kinase N2 (Homo sapiens) (UniProt Q16513); experiment: activity of PRK2(h) at 1.0 µM in the Eurofins Kinase panel
[34] = biological target: cGMP-dependent protein kinase 2 (Homo sapiens) (UniProt Q13237); experiment: activity of PRKG2(h) at 1.0 µM in the Eurofins Kinase panel
[35] = biological target: Mitogen-activated protein kinase 11 (Homo sapiens) (UniProt Q15759); experiment: activity of SAPK2b(h) at 1.0 µM in the Eurofins Kinase panel
[36] = biological target: Serine/threonine-protein kinase Sgk3 (Homo sapiens) (UniProt Q96BR1); experiment: activity of SGK3(h) at 1.0 µM in the Eurofins Kinase panel
[37] = biological target: Serine/threonine-protein kinase VRK1 (Homo sapiens) (UniProt Q99986); experiment: activity of VRK1(h) at 1.0 µM in the Eurofins Kinase panel
[38] = biological target: 3-phosphoinositide-dependent protein kinase 1 (Homo sapiens) (UniProt O15530); experiment: activity of PDK1(h) at 1.0 µM in the Eurofins Kinase panel

Sequence of Ribosomal protein S6 kinase alpha-5 (Homo sapiens) (O75582 whole entry, looked up): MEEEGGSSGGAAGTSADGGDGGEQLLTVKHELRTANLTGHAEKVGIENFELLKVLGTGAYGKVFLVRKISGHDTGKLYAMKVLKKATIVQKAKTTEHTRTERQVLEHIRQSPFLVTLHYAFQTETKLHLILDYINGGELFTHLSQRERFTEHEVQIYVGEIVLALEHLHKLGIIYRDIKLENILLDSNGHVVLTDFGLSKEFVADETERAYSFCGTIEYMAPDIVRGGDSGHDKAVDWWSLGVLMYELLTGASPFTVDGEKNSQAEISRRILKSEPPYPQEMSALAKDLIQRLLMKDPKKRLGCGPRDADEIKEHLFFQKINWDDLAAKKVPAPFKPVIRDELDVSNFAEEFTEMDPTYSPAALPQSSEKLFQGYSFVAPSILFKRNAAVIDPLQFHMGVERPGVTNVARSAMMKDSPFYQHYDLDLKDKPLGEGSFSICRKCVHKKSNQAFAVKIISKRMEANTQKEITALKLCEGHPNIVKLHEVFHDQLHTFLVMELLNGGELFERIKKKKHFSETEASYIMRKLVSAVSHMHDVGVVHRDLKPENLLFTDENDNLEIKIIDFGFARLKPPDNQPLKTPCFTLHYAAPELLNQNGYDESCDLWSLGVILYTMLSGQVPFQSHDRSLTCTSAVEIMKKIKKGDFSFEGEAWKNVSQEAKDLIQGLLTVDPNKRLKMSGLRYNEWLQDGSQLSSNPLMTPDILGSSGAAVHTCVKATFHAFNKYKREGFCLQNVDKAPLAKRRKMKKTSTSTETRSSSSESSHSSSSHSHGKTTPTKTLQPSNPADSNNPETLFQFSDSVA
Sequence of Serine/threonine-protein kinase 38-like (Homo sapiens) (Q9Y2H1 2-464 limits assumed): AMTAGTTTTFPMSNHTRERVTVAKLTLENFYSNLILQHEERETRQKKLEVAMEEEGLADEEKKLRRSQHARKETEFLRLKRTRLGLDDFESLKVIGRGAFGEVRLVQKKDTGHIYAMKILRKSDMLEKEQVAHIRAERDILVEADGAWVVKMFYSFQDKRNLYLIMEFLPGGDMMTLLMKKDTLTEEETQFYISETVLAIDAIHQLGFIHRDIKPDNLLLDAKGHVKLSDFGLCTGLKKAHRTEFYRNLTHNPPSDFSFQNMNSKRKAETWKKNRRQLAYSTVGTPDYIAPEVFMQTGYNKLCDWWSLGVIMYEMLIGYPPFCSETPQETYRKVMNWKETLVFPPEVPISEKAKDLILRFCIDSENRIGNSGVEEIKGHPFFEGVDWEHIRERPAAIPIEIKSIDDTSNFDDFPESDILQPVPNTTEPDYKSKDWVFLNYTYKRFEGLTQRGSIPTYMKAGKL
Sequence of Serine/threonine-protein kinase pim-1 (Homo sapiens) (P11309 whole entry, looked up): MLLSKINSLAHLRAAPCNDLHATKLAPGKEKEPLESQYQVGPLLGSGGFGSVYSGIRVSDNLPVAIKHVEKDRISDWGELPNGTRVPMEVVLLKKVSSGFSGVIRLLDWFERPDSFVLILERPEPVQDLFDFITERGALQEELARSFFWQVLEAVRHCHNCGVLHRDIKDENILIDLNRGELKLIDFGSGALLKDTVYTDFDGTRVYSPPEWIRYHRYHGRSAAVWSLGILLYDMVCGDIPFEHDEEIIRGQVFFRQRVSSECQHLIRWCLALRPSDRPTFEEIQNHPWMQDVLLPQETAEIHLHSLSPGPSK
Sequence of MAP/microtubule affinity-regulating kinase 4 (Homo sapiens) (Q96L34 whole entry): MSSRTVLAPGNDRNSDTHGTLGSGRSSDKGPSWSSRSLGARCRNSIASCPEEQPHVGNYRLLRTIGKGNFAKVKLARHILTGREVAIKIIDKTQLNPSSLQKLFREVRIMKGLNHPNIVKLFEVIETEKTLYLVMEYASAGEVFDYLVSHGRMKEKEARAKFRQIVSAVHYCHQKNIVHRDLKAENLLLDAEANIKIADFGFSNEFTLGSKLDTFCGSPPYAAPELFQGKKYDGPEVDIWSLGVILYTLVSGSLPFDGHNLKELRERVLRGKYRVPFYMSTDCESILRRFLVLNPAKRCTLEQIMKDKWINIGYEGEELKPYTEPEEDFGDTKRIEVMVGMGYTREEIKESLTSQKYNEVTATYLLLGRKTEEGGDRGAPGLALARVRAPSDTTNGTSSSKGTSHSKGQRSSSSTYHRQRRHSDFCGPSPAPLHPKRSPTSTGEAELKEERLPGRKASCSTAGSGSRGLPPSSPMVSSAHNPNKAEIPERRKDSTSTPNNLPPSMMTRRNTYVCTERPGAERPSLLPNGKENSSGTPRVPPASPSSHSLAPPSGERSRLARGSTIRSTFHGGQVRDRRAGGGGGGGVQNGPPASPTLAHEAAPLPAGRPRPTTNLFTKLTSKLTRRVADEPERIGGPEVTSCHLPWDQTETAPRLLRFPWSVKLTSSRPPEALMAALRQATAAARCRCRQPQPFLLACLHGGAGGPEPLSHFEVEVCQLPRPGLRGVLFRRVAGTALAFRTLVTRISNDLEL
Sequence of Mitogen-activated protein kinase 11 (Homo sapiens) (Q15759 whole entry): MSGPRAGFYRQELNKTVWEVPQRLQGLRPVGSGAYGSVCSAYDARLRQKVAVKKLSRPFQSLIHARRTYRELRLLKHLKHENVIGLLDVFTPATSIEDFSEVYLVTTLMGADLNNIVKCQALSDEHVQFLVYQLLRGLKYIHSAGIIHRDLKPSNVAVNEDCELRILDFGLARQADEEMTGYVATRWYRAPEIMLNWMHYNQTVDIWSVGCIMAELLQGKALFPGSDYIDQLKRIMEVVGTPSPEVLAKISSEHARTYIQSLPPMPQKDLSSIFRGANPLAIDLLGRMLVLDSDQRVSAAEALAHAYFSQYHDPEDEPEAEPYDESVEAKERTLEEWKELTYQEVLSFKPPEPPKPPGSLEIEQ
Sequence of Serine/threonine-protein kinase MARK2 (Homo sapiens) (Q7KZI7 whole entry): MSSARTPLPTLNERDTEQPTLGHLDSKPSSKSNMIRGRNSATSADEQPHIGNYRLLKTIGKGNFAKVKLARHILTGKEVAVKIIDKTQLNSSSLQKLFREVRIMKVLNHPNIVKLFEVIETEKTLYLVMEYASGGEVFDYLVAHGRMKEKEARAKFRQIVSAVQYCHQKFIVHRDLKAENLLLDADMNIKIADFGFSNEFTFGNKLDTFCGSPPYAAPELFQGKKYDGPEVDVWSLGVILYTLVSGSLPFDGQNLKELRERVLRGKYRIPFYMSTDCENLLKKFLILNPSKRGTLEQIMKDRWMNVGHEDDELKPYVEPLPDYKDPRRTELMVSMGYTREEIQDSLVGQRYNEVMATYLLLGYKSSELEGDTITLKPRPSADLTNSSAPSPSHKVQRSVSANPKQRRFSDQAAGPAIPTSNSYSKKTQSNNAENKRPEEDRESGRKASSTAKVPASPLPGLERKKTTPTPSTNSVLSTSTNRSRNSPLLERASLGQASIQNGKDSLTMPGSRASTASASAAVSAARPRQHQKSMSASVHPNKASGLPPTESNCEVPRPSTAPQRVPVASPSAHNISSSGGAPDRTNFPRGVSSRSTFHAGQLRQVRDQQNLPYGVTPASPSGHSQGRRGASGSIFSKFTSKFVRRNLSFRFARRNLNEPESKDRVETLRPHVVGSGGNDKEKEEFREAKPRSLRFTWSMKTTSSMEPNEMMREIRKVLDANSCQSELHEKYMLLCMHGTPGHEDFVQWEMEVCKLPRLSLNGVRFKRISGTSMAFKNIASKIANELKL
Sequence of Tyrosine-protein kinase ABL1 (Homo sapiens) (P00519 whole entry): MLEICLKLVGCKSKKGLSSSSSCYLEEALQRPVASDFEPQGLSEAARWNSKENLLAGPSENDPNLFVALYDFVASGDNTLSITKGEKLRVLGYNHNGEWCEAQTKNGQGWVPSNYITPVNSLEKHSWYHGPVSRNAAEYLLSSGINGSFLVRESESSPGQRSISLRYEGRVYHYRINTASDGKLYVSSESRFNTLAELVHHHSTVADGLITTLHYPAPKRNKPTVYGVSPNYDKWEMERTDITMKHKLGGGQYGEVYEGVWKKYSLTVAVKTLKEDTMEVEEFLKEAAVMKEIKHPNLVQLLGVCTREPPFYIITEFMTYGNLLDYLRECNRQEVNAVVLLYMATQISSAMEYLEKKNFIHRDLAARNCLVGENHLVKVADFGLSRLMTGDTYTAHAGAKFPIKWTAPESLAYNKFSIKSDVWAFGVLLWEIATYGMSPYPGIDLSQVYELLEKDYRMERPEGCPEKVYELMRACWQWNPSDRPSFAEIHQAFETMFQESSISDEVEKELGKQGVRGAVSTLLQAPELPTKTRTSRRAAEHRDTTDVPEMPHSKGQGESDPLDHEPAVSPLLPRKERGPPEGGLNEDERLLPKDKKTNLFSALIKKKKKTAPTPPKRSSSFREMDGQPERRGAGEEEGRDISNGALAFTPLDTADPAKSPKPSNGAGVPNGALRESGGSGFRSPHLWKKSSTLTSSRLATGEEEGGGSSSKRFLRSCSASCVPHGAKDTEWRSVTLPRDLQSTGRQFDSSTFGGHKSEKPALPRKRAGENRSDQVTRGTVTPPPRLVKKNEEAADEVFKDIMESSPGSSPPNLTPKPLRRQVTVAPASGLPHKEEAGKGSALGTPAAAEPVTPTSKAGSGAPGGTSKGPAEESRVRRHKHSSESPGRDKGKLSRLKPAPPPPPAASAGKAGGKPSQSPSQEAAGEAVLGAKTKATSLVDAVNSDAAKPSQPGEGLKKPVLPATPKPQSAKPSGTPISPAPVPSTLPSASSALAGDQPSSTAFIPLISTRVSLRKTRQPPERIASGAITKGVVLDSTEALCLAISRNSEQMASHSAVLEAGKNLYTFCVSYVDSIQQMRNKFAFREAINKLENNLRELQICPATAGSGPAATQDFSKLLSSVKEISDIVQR
Sequence of Serine/threonine-protein kinase VRK1 (Homo sapiens) (Q99986 whole entry): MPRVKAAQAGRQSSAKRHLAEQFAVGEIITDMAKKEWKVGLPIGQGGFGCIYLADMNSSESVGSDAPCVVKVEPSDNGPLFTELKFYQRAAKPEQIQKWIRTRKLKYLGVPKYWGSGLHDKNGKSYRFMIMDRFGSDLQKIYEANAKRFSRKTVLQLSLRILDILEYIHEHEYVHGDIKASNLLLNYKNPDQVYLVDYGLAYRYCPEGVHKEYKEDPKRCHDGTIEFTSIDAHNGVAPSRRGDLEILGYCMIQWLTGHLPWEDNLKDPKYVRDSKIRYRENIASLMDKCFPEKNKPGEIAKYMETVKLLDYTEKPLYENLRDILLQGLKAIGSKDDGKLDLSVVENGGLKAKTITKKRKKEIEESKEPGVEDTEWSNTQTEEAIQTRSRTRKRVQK

Cc1cc2c(-c3ccc(NC(=O)[C@H](N)CC(C)(C)C)cc3C)ccnc2[nH]1
activity [1]: 99%
activity [2]: 85%
activity [3]: 94%
activity [4]: 87%
activity [5]: 81%
activity [6]: 80%
activity [7]: 85%
activity [8]: 106%
activity [9]: 79%
activity [10]: 92%
activity [11]: 96%
activity [12]: 100%
activity [13]: 100%
activity [14]: 92%
activity [15]: 92%
activity [16]: 112%
activity [17]: 111%
activity [18]: 106%
activity [19]: 95%
activity [20]: 107%
activity [21]: 98%
activity [22]: 88%
activity [23]: 101%
activity [24]: 91%
activity [25]: 110%
activity [26]: 95%
activity [27]: 92%
activity [28]: 93%
activity [29]: 110%
activity [30]: 111%
activity [31]: 100%
activity [32]: 92%
activity [33]: 92%
activity [34]: 110%
activity [35]: 90%
activity [36]: 102%
activity [37]: 99%
activity [38]: 105%
